This is an account of results in patent publication US9475808B2, “Inhibitor compounds of phosphodiesterase type 10A” (AbbVie Deutschland GmbH & Co. KG, priority 2013, dated 2016).

The target of data set [1] is PDE10A (UniProt Q9Y233). Briefly: Measurement of PDE activity (HTRF cAMP assay, recombinant enzyme). The data set is classed as biochemical. To be noted: 20 nM cyclic nucleotide substrate, 60 minutes at 29 C. On the procedure: The recombinant PDE proteins are used in in vitro enzymatic reaction for measurement of PDE activity. These recombinant proteins, including PDE10A (human, rat and mouse PDE10) and isoforms of PDEs 1, 3, 4, and 5, were purchased from commercial vendor BPS Bioscience. The enzymatic activity of PDEs was determined by cAMP measurement kit from CisBio (IBA) using HTRF technology.
The PDE enzymatic reaction was carried out in assay buffer (20 mM Tris-HCl pH7.5, 10 mM MgCl2, 0.1% bovine serum albumin) containing enzyme and substrate. The PDE enzymes concentration ranged from 10 pM-250 pM, depending on each enzyme's specific activity. The substrate cyclic nucleotide (cAMP or cGMP) concentration used in the assay was 20 nM for PDE10, and 100 nM for other PDEs. The inhibitory effect of compound was determined by incubating various concentration of inhibitor in the enzymatic assay. Typically, compound was serial diluted in DMSO then further diluted in assay buffer. Next, the compound at varying concentration was mixed with PDE enzyme. The reaction was initiated by addition of cyclic nucleotide substrate, and incubated for 60 minutes at 29 C. The reaction was stopped by addition of lysis buffer from assay kit. The cAMP-d2 and anti-cAMP cryptate in the lysis buffer detected the level of cAMP left from the PDE hydrolysis reaction. The PDE activity is reversely correlated with the amount of cAMP left in the reaction and can be converted to the percent activity of an uninhibited control (100%). Thus, IC50 value of inhibitor can be obtained by plotting inhibitor concentration against PDE activity at that concentration.
A general note: In TR-FRET formats the signal depends on donor and acceptor labels being close together.

The nature of data set [2]: Determination of the microsomal half-life / microsomal clearance, rat liver microsomes. To be noted: 0.5 μM test substance, 0.25 mg microsomal protein/ml, pH 7.4, 37° C., NADPH. On the technique in general: Liver microsomes are a subcellular fraction often used to study metabolism.
Procedure: (§1) The test substances were incubated in a concentration of 0.5 μM as follows:
(§2) 0.5 μM test substance are preincubated together with liver microsomes from different species (from rat, human or other species) (0.25 mg of microsomal protein/ml) in 0.05 M potassium phosphate buffer of pH 7.4 in microtiter plates at 37° C. for 5 min. The reaction is started by adding NADPH (1 mg/mL). After 0, 5, 10, 15, 20 and 30 min, 50 μl aliquots are removed, and the reaction is immediately stopped and cooled with the same volume of acetonitrile. The samples are frozen until analyzed. The remaining concentration of undegraded test substance is determined by MSMS. The half-life (T½) is determined from the gradient of the signal of test substance/unit time plot, it being possible to calculate the half-life of the test substance, assuming first order kinetics, from the decrease in the concentration of the compound with time. The microsomal clearance (mCl) is calculated from mCl=ln 2/T½/(content of microsomal protein in mg/ml)×1000 [ml/min/mg]
Data set [3] is described as follows: Determination of the microsomal half-life / microsomal clearance, human liver microsomes. The conditions noted are these: 0.5 μM test substance, 0.25 mg microsomal protein/ml, pH 7.4, 37° C., NADPH.
Procedure: as §1, §2

pIC50: −log10 of the molar value.

For “2-(2-Imidazo[1,2-a]pyridin-2-yl-ethyl)-5-methyl-7-morpholin-4-yl-3,5-dihydro-2H-pyrrolo[3,4-c]pyridine-1,6-dione [Example 23]”, the pIC50 (in general, the IC50 on a negative log10 scale, so that one unit is a factor of ten) in data set [1] was less than 6.30.

Turning to “5-Methyl-7-morpholin-4-yl-2-(2-[1,2,4]triazolo[1,5-a]pyridin-2-yl-ethyl)-5H-pyrrolo[3,4-c]pyridine-1,3,6-trione [Example 5]”, in data set [1], the pIC50 is less than 6.30.

Take `Cn1cc2c(c(N3CCOCC3)c1=O)C(=O)N(CCc1ccc3ccccc3n1)C2=O` [Example 1, 5-Methyl-7-morpholin-4-yl-2-(2-quinolin-2-yl-ethyl)-5H-pyrrolo[3,4-c]pyridine-1,3,6-trione]: in data set [1], the pIC50 is more than 7.00. Moreover, the “Rat mCl” value in data set [2] is listed as “++ (++: <100 μl min^−1 mg^−1)”. In addition, the “Human mCl” value in data set [3] is “++ (++: <100 μl min^−1 mg^−1)”.

`Cn1cc2c(c(N3CCOCC3)c1=O)CN(CCc1ccc3ccccc3n1)C2=O` [Example 6, 5-Methyl-7-morpholin-4-yl-2-(2-quinolin-2-yl-ethyl)-1,2-dihydro-5H-pyrrolo[3,4-c]pyridine-3,6-dione]: the pIC50 in data set [1] was less than 6.30. Further, in data set [2], the “Rat mCl” value is “++ (++: <100 μl min^−1 mg^−1)”. The “Human mCl” value in data set [3] is on record as “++ (++: <100 μl min^−1 mg^−1)”.

In the case of `CN1CCN(c2c3c(cn(C)c2=O)C(=O)N(CCc2ccc4ccccc4n2)C3)CC1` [Example 7, 5-Methyl-7-(4-methyl-piperazin-1-yl)-2-(2-quinolin-2-yl-ethyl)-1,2-dihydro-5H-pyrrolo[3,4-c]pyridine-3,6-dione], the pIC50 in data set [1] was less than 6.30. For the same compound, the “Rat mCl” value in data set [2] is “+++ (+++ <10 μl min^−1 mg^−1)”. Further, the “Human mCl” value in data set [3] was “++ (++: <100 μl min^−1 mg^−1)”.

As for `Cn1cc2c(c(-c3ccncc3)c1=O)CN(CCc1ccc3ccccc3n1)C2=O` [Example 8, 5-Methyl-7-pyridin-4-yl-2-(2-quinolin-2-yl-ethyl)-1,2-dihydro-5H-pyrrolo[3,4-c]pyridine-3,6-dione], the pIC50 in data set [1] is less than 6.30.

Regarding `Cn1cc2c(c(N3CCOCC3)c1=O)C(=O)N(CCc1ccc3ccccc3n1)C2` [Example 9, 5-Methyl-7-morpholin-4-yl-2-(2-quinolin-2-yl-ethyl)-3,5-dihydro-2H-pyrrolo[3,4-c]pyridine-1,6-dione], the pIC50 in data set [1] is more than 7.00. Further, the “Rat mCl” value in data set [2] was “++ (++: <100 μl min^−1 mg^−1)”. The “Human mCl” value in data set [3] was “++ (++: <100 μl min^−1 mg^−1)”.

On to `CN1CCN(c2c3c(cn(C)c2=O)CN(CCc2ccc4ccccc4n2)C3=O)CC1` [Example 10, 5-Methyl-7-(4-methyl-piperazin-1-yl)-2-(2-quinolin-2-yl-ethyl)-3,5-dihydro-2H-pyrrolo[3,4-c]pyridine-1,6-dione], for which, in data set [2], the “Rat mCl” value is “+++ (+++ <10 μl min^−1 mg^−1)”. The “Human mCl” value in data set [3] is reported as “+++ (+++ <10 μl min^−1 mg^−1)”.

With `Cn1cc2c(c(-c3ccncc3)c1=O)C(=O)N(CCc1ccc3ccccc3n1)C2` [Example 11, 5-Methyl-7-pyridin-4-yl-2-(2-quinolin-2-yl-ethyl)-3,5-dihydro-2H-pyrrolo[3,4-c]pyridine-1,6-dione], the pIC50 in data set [1] is 6.70 to 7.00.

`Cn1cc2c(c(N3CCS(=O)(=O)CC3)c1=O)C(=O)N(CCc1ccc3ccccc3n1)C2` [Example 12, 5-Methyl-7-(1,1-dioxo-thiomorpholin-4-yl)-2-(2-quinolin-2-yl-ethyl)-3,5-dihydro-2H-pyrrolo[3,4-c]pyridine-1,6-dione]: the negative logarithm of the IC50 (pIC50) in data set [1] was 6.70 to 7.00. Also, the “Rat mCl” value in data set [2] is given as “+++ (+++ <10 μl min^−1 mg^−1)”. In data set [3], the “Human mCl” value is listed as “++ (++: <100 μl min^−1 mg^−1)”.

`Cn1cc2c(c(-c3cccnc3)c1=O)C(=O)N(CCc1ccc3ccccc3n1)C2` [Example 13, 5-Methyl-7-pyridin-3-yl-2-(2-quinolin-2-yl-ethyl)-3,5-dihydro-2H-pyrrolo[3,4-c]pyridine-1,6-dione]: the pIC50 in data set [1] is less than 6.30. Further, in data set [2], the “Rat mCl” value is given as “++ (++: <100 μl min^−1 mg^−1)”. Also, the “Human mCl” value in data set [3] is “++ (++: <100 μl min^−1 mg^−1)”.

On to `COc1ccc(Cn2cc3c(c(N4CCOCC4)c2=O)C(=O)N(CCc2ccc4ccccc4n2)C3)cc1` [Example 14, 5-(4-Methoxy-benzyl)-7-morpholin-4-yl-2-(2-quinolin-2-yl-ethyl)-3,5-dihydro-2H-pyrrolo[3,4-c]pyridine-1,6-dione], for which, in data set [1], the pIC50 is more than 7.00. Moreover, in data set [2], the “Rat mCl” value was “+ (+: 100-220 μl min^−1 mg^−1)”. Besides, the “Human mCl” value in data set [3] is recorded as “∘ (∘: >220 μl min^−1 mg^−1)”.

On to `O=C1c2c(c[nH]c(=O)c2N2CCOCC2)CN1CCc1ccc2ccccc2n1` [Example 15, 7-Morpholin-4-yl-2-(2-quinolin-2-yl-ethyl)-3,5-dihydro-2H-pyrrolo[3,4-c]pyridine-1,6-dione], for which the pIC50 in data set [1] is more than 7.00. In addition, the “Rat mCl” value in data set [2] is reported as “++ (++: <100 μl min^−1 mg^−1)”. In addition, in data set [3], the “Human mCl” value was “++ (++: <100 μl min^−1 mg^−1)”.

For `CCn1cc2c(c(N3CCOCC3)c1=O)C(=O)N(CCc1ccc3ccccc3n1)C2` [Example 16, 5-Ethyl-7-morpholin-4-yl-2-(2-quinolin-2-yl-ethyl)-3,5-dihydro-2H-pyrrolo[3,4-c]pyridine-1,6-dione], the negative-log IC50 (pIC50) in data set [1] was more than 7.00. In addition, the “Rat mCl” value in data set [2] was “++ (++: <100 μl min^−1 mg^−1)”. In addition, the “Human mCl” value in data set [3] was “++ (++: <100 μl min^−1 mg^−1)”.

In the case of `CC(C)n1cc2c(c(N3CCOCC3)c1=O)C(=O)N(CCc1ccc3ccccc3n1)C2` [Example 17, 5-Isopropyl-7-morpholin-4-yl-2-(2-quinolin-2-yl-ethyl)-3,5-dihydro-2H-pyrrolo[3,4-c]pyridine-1,6-dione], the pIC50 in data set [1] was more than 7.00. Besides, the “Rat mCl” value in data set [2] is “++ (++: <100 μl min^−1 mg^−1)”. Besides, the “Human mCl” value in data set [3] was “++ (++: <100 μl min^−1 mg^−1)”.

Regarding `COCCn1cc2c(c(N3CCOCC3)c1=O)C(=O)N(CCc1ccc3ccccc3n1)C2` [Example 18, 5-(2-Methoxy-ethyl)-7-morpholin-4-yl-2-(2-quinolin-2-yl-ethyl)-3,5-dihydro-2H-pyrrolo[3,4-c]pyridine-1,6-dione], the pIC50 in data set [1] was more than 7.00. For the same compound, the “Rat mCl” value in data set [2] was “++ (++: <100 μl min^−1 mg^−1)”. The “Human mCl” value in data set [3] was “++ (++: <100 μl min^−1 mg^−1)”.

As for `O=C1c2c(cn(CCO)c(=O)c2N2CCOCC2)CN1CCc1ccc2ccccc2n1` [Example 19, 5-(2-Hydroxy-ethyl)-7-morpholin-4-yl-2-(2-quinolin-2-yl-ethyl)-3,5-dihydro-2H-pyrrolo[3,4-c]pyridine-1,6-dione], the pIC50 in data set [1] is more than 7.00. For the same compound, the “Rat mCl” value in data set [2] is listed as “+++ (+++ <10 μl min^−1 mg^−1)”. Moreover, the “Human mCl” value in data set [3] is “++ (++: <100 μl min^−1 mg^−1)”.

As for `Cn1cc2c(c(N3CCOCC3)c1=O)C(=O)N(CCc1nc3ccccc3n1C)C2` [Example 20, 5-Methyl-2-[2-(1-methyl-1H-benzoimidazol-2-yl)-ethyl]-7-morpholin-4-yl-3,5-dihydro-2H-pyrrolo[3,4-c]pyridine-1,6-dione], in data set [1], the pIC50 was more than 7.00. The “Rat mCl” value in data set [2] is given as “++ (++: <100 μl min^−1 mg^−1)”. The “Human mCl” value in data set [3] is “++ (++: <100 μl min^−1 mg^−1)”.

Take `Cn1cc2c(c(-c3cccnc3)c1=O)C(=O)N(CCc1nc3ccccc3n1C)C2` [Example 21, 5-Methyl-2-[2-(1-methyl-1H-benzoimidazol-2-yl)-ethyl]-7-pyridin-3-yl-3,5-dihydro-2H-pyrrolo[3,4-c]pyridine-1,6-dione]: the pIC50 in data set [1] was 6.30 to 6.70. The “Rat mCl” value in data set [2] is “++ (++: <100 μl min^−1 mg^−1)”. In addition, the “Human mCl” value in data set [3] is listed as “++ (++: <100 μl min^−1 mg^−1)”.

In the case of `Cn1cc2c(c(N3CCOCC3)c1=O)C(=O)N(CCc1cn3ccccc3n1)C2` [Example 22, 2-(2-Imidazo[1,2-a]pyridin-2-yl-ethyl)-5-methyl-7-morpholin-4-yl-3,5-dihydro-2H-pyrrolo[3,4-c]pyridine-1,6-dione], the pIC50 in data set [1] was more than 7.00. Further, the “Rat mCl” value in data set [2] is “++ (++: <100 μl min^−1 mg^−1)”. In data set [3], the “Human mCl” value is “+++ (+++ <10 μl min^−1 mg^−1)”.

On to `Cn1cc2c(c(N3CCOCC3)c1=O)C(=O)N(CCc1nc3ccccn3n1)C2` [Example 24, 5-Methyl-7-morpholin-4-yl-2-(2-[1,2,4]triazolo[1,5-a]pyridin-2-yl-ethyl)-3,5-dihydro-2H-pyrrolo[3,4-c]pyridine-1,6-dione], for which, in data set [1], the pIC50 was less than 6.30. Also, in data set [2], the “Rat mCl” value is recorded as “++ (++: <100 μl min^−1 mg^−1)”. Further, the “Human mCl” value in data set [3] is “++ (++: <100 μl min^−1 mg^−1)”.

Consider `Cn1nccc1-c1c2c(cn(C)c1=O)CN(CCc1ccc3ccccc3n1)C2=O` [Example 30, 5-Methyl-7-(2-methyl-2H-pyrazol-3-yl)-2-(2-quinolin-2-yl-ethyl)-3,5-dihydro-2H-pyrrolo[3,4-c]pyridine-1,6-dione], for which the pIC50 in data set [1] was less than 6.30.

As to `Cn1cc2c(c(N3CCOCC3)c1=O)C(=O)N(CCc1ccc3ccccc3n1)C2(F)F` [Example 35, 3,3-Difluoro-5-methyl-7-morpholin-4-yl-2-(2-quinolin-2-yl-ethyl)-3,5-dihydro-2H-pyrrolo[3,4-c]pyridine-1,6-dione], the pIC50 in data set [1] is more than 7.00.
